US20040241310A1, “Method of producing antibodies ex-vivo” (priority 2001, published 2004)

Tested on: White Leghorn chickens
Type: in vivo
Conditions: oral gavage, 100 μg human IgG together with the adjuvant, two hens per group

Compound | titers (antibodies in egg yolk)
CTB | One of four chickens in the CTB-group showed high titers
CCCCCCCCCCCCCCCCCC[N+](C)(C)CCCCCCCCCCCCCCCCCC.[Br-] [DDA, Dimethyl dioctadecyl ammonium bromide] | no or very low titers
